Experimental data as given in paper PMC3171769, “Catalytical Properties of Free and Immobilized Aspergillus niger Tannase” (Enzyme Research, 2011).

Test system: T1, tannase (tannin acyl hydrolase, TAH) from Aspergillus niger GH1
T1 construct: native intracellular enzyme from submerged culture with tannic acid
Assay: HPLC of released gallic acid; Lineweaver-Burk
Assay type: biochemical
Conditions: free, partially purified enzyme; 50 mM citrate pH 5.5, 30 °C; read-out: Free tannase / K M
Excerpt: HPLC of released gallic acid; Lineweaver-Burk on tannase (tannin acyl hydrolase, TAH) from Aspergillus niger GH1

Km: 0.433 mM
Compound: COC(=O)c1cc(O)c(O)c(O)c1 [methyl gallate]
